Measured values: patent publication US20250074896A1, “ARYLTETRAHYDROPYRIDAZINE DERIVATIVE OR SALT THEREOF AND INSECTICIDAL AGENT CONTAINING THE COMPOUND AND METHOD FOR USING SAME” (NIHON NOHYAKU CO., LTD., priority 2021, published 2025)
Like-named read-outs stand apart in the source and are kept apart here.

Key:
Format in all cases: in vivo
[1] = tested on: Diamondback moth (Plutella xylostella); assay: Insecticidal test on diamondback moth (dip treatment of Chinese cabbage seedlings with laid eggs); details: 144 h, read-out: insecticidal efficacy (corrected mortality rate) against diamondback moth
Source text: Insecticidal Test on Diamondback moth (Plutella xylostella)
Adults of diamondback moth were released onto Chinese cabbage seedlings and allowed to lay eggs thereon. At 2 days after the release of the adults, the Chinese cabbage seedlings with laid eggs were dipped for about 30 seconds in agrochemical dispersions diluted to 50 ppm or 500 ppm, each of which contained a different compound represented by the general formula (1) of the present invention as an active ingredient. After air-dried, the seedlings were kept in a thermostatic chamber at 25° C. At 6 days after the dip treatment, the number of surviving larvae per plot was counted, the corrected mortality rate was calculated according to the formula shown below, and the insecticidal efficacy was evaluated according to the criteria shown below. This test was conducted in triplicate using 10 adults of diamondback moth per plot.
(§1) • A: the mortality rate is 100%. • B: the mortality rate is 90 to 99%. • C: the mortality rate is 80 to 89%. • D: the mortality rate is 50 to 79%. • E: the mortality rate is 0 to 49%.

[2] = tested on: Small Brown Planthopper (Laodelphax striatellus); assay: Insecticidal test on small brown planthopper (dipped rice seedlings, 3rd-instar larvae); details: 192 h, rice seedlings dipped 30 seconds, 8 days after inoculation, read-out: insecticidal efficacy (corrected mortality rate) against small brown planthopper
Source text: as §1
Insecticidal Test on Small Brown Planthopper (Laodelphax striatellus)
The compounds represented by the general formula (1) of the present invention or salts thereof were separately dispersed in water and diluted to 50 ppm or 500 ppm. Rice plant seedlings (variety: Nihonbare) were dipped in the agrochemical dispersions for 30 seconds. After air-dried, each seedling was put into a separate glass test tube and inoculated with ten 3rd-instar larvae of small brown planthopper, and then the glass test tubes were capped with cotton plugs. At 8 days after the inoculation, the numbers of surviving larvae and dead larvae were counted, the corrected mortality rate was calculated according to the formula shown below, and the insecticidal efficacy was evaluated according to the criteria of Test Example 1.

[3] = tested on: Western Flower Thrips (Frankliniella occidentalis); assay: Insecticidal test on western flower thrips (kidney bean leaf pieces, hatched larvae); details: 96 h, read-out: insecticidal efficacy (corrected mortality rate) against western flower thrips
Source text: as §1
Insecticidal Test on Western Flower Thrips (Frankliniella occidentalis)
Female adults of western flower thrips were inoculated onto kidney bean leaf pieces, and allowed to lay eggs thereon for one day, then the female adults were removed. After 3 days, the hatched larvae on the leaf pieces were counted, and then the agrochemical dispersions diluted to 50 ppm or 500 ppm, each of which contained the compound described in Tables 1 to 6 as an active ingredient were applied. The number of larvae of the species surviving at 4 days after the treatment was counted, and the corrected mortality rate was calculated according to the formula shown below, and the insecticidal efficacy was evaluated according to the criteria of Test Example 1. This test was conducted in duplicate.

[4] = dip about 30 seconds, 6 days after treatment, 25° C.
[5] = 500 ppm, dip about 30 seconds, 6 days after treatment, 25° C.
[6] = 500 ppm, 4 days after the treatment

O=C(Nc1ccc(F)cc1)C1=C(S)CN(c2ccc(C(F)(F)F)nc2)NC1=O [5-2, N-(4-fluorophenyl)-5-mercapto-3-oxo-1-(6-(trifluoromethyl)pyridin-3-yl)-1,2,3,6-tetrahydropyridazine-4-carboxamide]
100%: mortality at 50 ppm [1, 4] | mortality at 500 ppm [1, 5] | mortality at 50 ppm [2] | mortality at 500 ppm [2] | mortality at 50 ppm ([3]; 4 days after the treatment) | mortality at 500 ppm [3, 6]

CSC1=C(C(=O)Nc2ccc(F)cc2)C(=O)N(C(=O)OC(C)(C)C)N(c2ccc(C(F)(F)F)nc2)C1 [5-11, tert-butyl 5-((4-fluorophenyl)carbamoyl)-4-methylsulfanyl-6-oxo-2-(6-(trifluoromethyl)pyridin-3-yl)-2,3-dihydropyridazine-1(6H)-carboxylate]
100%: mortality at 50 ppm [1, 4] | mortality at 500 ppm [1, 5] | mortality at 50 ppm [2] | mortality at 500 ppm [2] | mortality at 50 ppm ([3]; 4 days after the treatment) | mortality at 500 ppm [3, 6]

CCNC(=O)N1C(=O)C(C(=O)Nc2ccc(F)cc2)=C(O)CN1c1ccc(C(F)(F)F)nc1 [3-22, N^1-ethyl-N^5-(4-fluorophenyl)-4-hydroxy-6-oxo-2-(6-(trifluoromethyl)pyridin-3-yl)-2,3-dihydropyridazine-1,5(6H)-dicarboxamide]
100%: mortality at 500 ppm [1, 5] | mortality at 500 ppm [2] | mortality at 50 ppm ([3]; 4 days after the treatment) | mortality at 500 ppm [3, 6]

CNC(=S)N1C(=O)C(C(=O)Nc2ccc(F)cc2)=C(O)CN1c1ccc(C(F)(F)F)nc1 [3-362, N-(4-fluorophenyl)-5-hydroxy-2-(methylcarbamothioyl)-3-oxo-1-(6-(trifluoromethyl)pyridin-3-yl)-1,2,3,6-tetrahydropyridazine-4-carboxamide]
100%: mortality at 50 ppm [1, 4] | mortality at 500 ppm [1, 5] | mortality at 50 ppm ([3]; 4 days after the treatment) | mortality at 500 ppm [3, 6]

CCCNC(=O)N1C(=O)C(C(=O)Nc2ccn(C)n2)=C(O)CN1c1ccc(C#N)cc1 [3-563, N^5-(1-methyl-1H-pyrazol-3-yl) N^1-propyl 4-hydroxy-6-oxo-2-(4-cyanophenyl)-2,3-dihydropyridazine-1,5(6H)-dicarboxamide]
100%: mortality at 50 ppm [2] | mortality at 500 ppm [2]

N#Cc1ccc(N2CC(O)=C(C(=O)Nc3ccc(F)cc3)C(=S)N2)cn1 [6-6, 1-(6-cyanopyridin-3-yl)-N-(4-fluorophenyl)-5-hydroxy-3-thioxo-1,2,3,6-tetrahydropyridazine-4-carboxamide]
100%: mortality at 500 ppm [1, 5] | mortality at 500 ppm [2] | mortality at 500 ppm [3, 6]

O=C(Nc1ccc(C(F)(F)F)cc1)C1=C(O)CN(c2ccc(C(F)(F)F)nc2)NC1=O [1-85, N-(4-trifluoromethylphenyl)-5-hydroxy-3-oxo-1-(6-(trifluoromethyl)pyridin-3-yl)-1,2,3,6-tetrahydropyridazine-4-carboxamide]
100%: mortality at 500 ppm [1] | mortality at 500 ppm [3]

COC(=O)N1C(=O)C(C(=O)Nc2ccn(C)n2)=C(O)CN1c1ccc(C#N)cc1 [3-437, methyl 2-(4-cyanophenyl)-4-hydroxy-5-((1-methyl-1H-pyrazol-3-yl)carbamoyl)-6-oxo-2,3-dihydropyridazine-1(6H)-carboxylate]
100%: mortality at 50 ppm [2] | mortality at 500 ppm [2] | mortality at 50 ppm ([3]; 4 days after the treatment) | mortality at 500 ppm [3, 6]

CC(C)(C)OC(=O)N1C(=O)C(C(=O)Nc2ccc(F)cc2)=C(S)CN1c1ccc(C(F)(F)F)nc1 [5-7, tert-butyl 5-((4-fluorophenyl)carbamoyl)-4-mercapto-6-oxo-2-(6-(trifluoromethyl)pyridin-3-yl)-2,3-dihydropyridazine-1(6H)-carboxylate]
100%: mortality at 50 ppm [1, 4] | mortality at 500 ppm [1, 5] | mortality at 50 ppm [2] | mortality at 500 ppm [2] | mortality at 50 ppm ([3]; 4 days after the treatment) | mortality at 500 ppm [3, 6]

CC(C)(C)OC(=O)N1C(=O)C(C(=S)Nc2ccc(F)cc2)=C(O)CN1c1ccc(C(F)(F)F)nc1 [4-34, tert-butyl 5-((4-fluorophenyl)carbamothioyl)-4-hydroxy-6-oxo-2-(6-(trifluoromethyl)pyridin-3-yl)-2,3-dihydropyridazine-1(6H)-carboxylate]
100%: mortality at 50 ppm [1, 4] | mortality at 500 ppm [1, 5] | mortality at 50 ppm [2] | mortality at 500 ppm [2] | mortality at 50 ppm ([3]; 4 days after the treatment) | mortality at 500 ppm [3, 6]

CC(C)(C)OC(=O)N1C(=O)C(C(=O)Nc2ccc(F)cc2)=C(O)CN1c1ccc(C(F)(F)F)nc1 [3-308, tert-butyl 5-((4-fluorophenyl)carbamoyl)-4-hydroxy-6-oxo-2-(6-(trifluoromethyl)pyridin-3-yl)-2,3-dihydropyridazine-1(6H)-carboxylate]
100%: mortality at 50 ppm [1, 4] | mortality at 500 ppm [1, 5] | mortality at 50 ppm [2] | mortality at 500 ppm [2] | mortality at 50 ppm ([3]; 4 days after the treatment) | mortality at 500 ppm [3, 6]
